According to ChEMBL document CHEMBL1641564, “In vitro evaluation of 5-arylidene-2-thioxo-4-thiazolidinones active as aldose reductase inhibitors” (Bioorg Med Chem Lett, 2011):

The molecules below were run against Aldo-keto reductase family 1 member B1 (Bos taurus, UniProt P16116) (assay: Inhibition of bovine lens aldose reductase assessed as inhibition of […] oxidation by non-linear regression analysis).

IC50 [nM]	Compound
150	COc1cccc(/C=C2\SC(=S)N(CC(=O)O)C2=O)c1
110	O=C(O)CN1C(=O)/C(=C/c2ccc(Oc3ccccc3)cc2)SC1=S
2270	O=C1NC(=S)S/C1=C\c1cccc2ccccc12
1100	O=C1NC(=S)S/C1=C\c1ccc(Oc2ccccc2)cc1
4550	O=C1NC(=S)S/C1=C\c1ccc(O)cc1
2940	O=C1NC(=S)S/C1=C\c1cccc(Oc2ccccc2)c1
5230	COc1ccc(/C=C2\SC(=S)NC2=O)cc1
130	O=C(O)CN1C(=O)/C(=C/c2cccc(OCc3ccccc3)c2)SC1=S
6240	COc1cccc(/C=C2\SC(=S)NC2=O)c1
1080	O=C1NC(=S)S/C1=C\c1cccc(OCc2ccccc2)c1
410	O=C(O)CN1C(=O)/C(=C/c2cccc(Oc3ccccc3)c2)SC1=S
190	O=C(O)CN1C(=O)/C(=C/c2ccc(OCc3ccccc3)cc2)SC1=S

The molecules below were run against Aldo-keto reductase family 1 member B1 (Bos taurus) (UniProt P16116) (assay: Inhibition of bovine lens aldose reductase assessed as inhibition of […] oxidation at 11 uM by non-linear regression analysis).

inhibition [%]	Compound
7	O=C1NC(=S)S/C1=C\c1ccc(OCc2ccccc2)cc1

Each molecule was assayed against Aldo-keto reductase family 1 member B1 (Bos taurus) (UniProt P16116) (assay: Inhibition of bovine lens aldose reductase assessed as inhibition of […] oxidation at 13 uM by non-linear regression analysis).

inhibition [%]	Compound
28	O=C1NC(=S)S/C1=C\c1ccc(-c2ccccc2)cc1

The molecules below were run against Aldo-keto reductase family 1 member B1 (Bos taurus) (UniProt P16116) (assay: Inhibition of bovine lens aldose reductase assessed as inhibition of […] oxidation at 16 uM by non-linear regression analysis).

inhibition [%]	Compound
40	O=C1NC(=S)S/C1=C\c1ccc2ccccc2c1

What follows are molecules tested against T1, Aldo-keto reductase family 1 member B1 (Homo sapiens, UniProt P15121) (assay: Inhibition of aldose reductase).

IC50 [nM]	Compound
13300	COc1cccc(/C=C2\SC(=O)NC2=O)c1
40800	COc1ccc(/C=C2\SC(=O)NC2=O)cc1
130	O=C(O)CN1C(=O)S/C(=C\c2cccc(Oc3ccccc3)c2)C1=O
8960	O=C1NC(=O)/C(=C/c2ccc(O)cc2)S1
820	O=C(O)CN1C(=O)S/C(=C\c2ccc(Oc3ccccc3)cc2)C1=O
280	O=C(O)CN1C(=O)S/C(=C\c2ccc(OCc3ccccc3)cc2)C1=O
6140	O=C1NC(=O)/C(=C/c2cccc(Oc3ccccc3)c2)S1
10700	O=C1NC(=O)/C(=C/c2cccc3ccccc23)S1
480	COc1cccc(/C=C2\SC(=O)N(CC(=O)O)C2=O)c1

The molecules below were run against T1, Aldo-keto reductase family 1 member B1 (assay: Inhibition of aldose reductase at 37 uM).

inhibition [%]	Compound
41	O=C1N=C(O)S/C1=C\c1ccc(Oc2ccccc2)cc1

Each molecule was assayed against T1, Aldo-keto reductase family 1 member B1 (assay: Inhibition of aldose reductase at 50 uM).

inhibition [%]	Compound
20	O=C1NC(=O)/C(=C/c2ccc(-c3ccccc3)cc2)S1
10	O=C1N=C(O)S/C1=C\c1ccc(OCc2ccccc2)cc1
